Legend:
[1] = molecular target: T1, Replicase polyprotein 1ab (Severe acute respiratory syndrome coronavirus 2, UniProt P0DTD1); experiment: Inhibition of SARS-CoV-2 Main protease (3264 to 3569 residues) expressed in Escherichia coli BL21-Gold (DE3) using Dabcyl-KTSAVLQSGFRKM-E(Edans)-NH2 as substrate by FRET assay
[2] = molecular target: T1, Replicase polyprotein 1ab; experiment: Inhibition of SARS-CoV-2 3CL protease expressed in Escherichia coli using Dabcyl-KTSAVLQSGFRKM-E(Edans)-NH2 as substrate preincubated for 30 mins followed by substrate addition and measured after 3 hrs

**Q.** `CC(C)(C)OC(=O)Nc1ccn([C@@H](CC2CC2)C(=O)N[C@@H](C[C@@H]2CCNC2=O)C(=O)C(=O)NCc2ccccc2)c(=O)c1` was tested. Which IC50 [1] did it give?
**A.** 0.67 µM

**Q.** With `Cn1nc(-c2ccc(C(F)(F)F)cc2)nc2c(=O)n(C)c(=O)cc1-2` as the molecule, how does the IC50 [2] read?
**A.** 0.26 µM
